Measured values reported in the supplement of paper PMC11208160.

Assay: recombinant UMI read abundance after kanamycin selection (control-corrected) (log10(CPM+1)); higher = more efficient recombination; extreme values may be limits of the assay; sequences stand for … in AGTGCAGAGAAAATCGGCCAGTTTTCTCTGCCTGCAGTCCGCATGCCGTGGGACCCCTTGGGTTCTAACCTGTTGCCTAGATTTATGCAGCGGACTGCCTTTCTCCCAAAGTGATAAACCGG…AGGTTGGTTTCACT; site = the 11-nt donor
Summary of the method: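 Under IPTG (0.07 mM) plus kanamycin, or without selection, Escherichia coli carrying a UMI-tagged donor and donor-binding-loop pair library and a target plasmid for the IS621 bridge recombinase were plated in two replicates. Recombinant UMIs were PCR-amplified across the donor–target junction and sequenced. Counts were converted to CPM, averaged over replicates, scaled by control-derived factors and reported as log10(CPM+1).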
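Further: IS621 bridge recombinase in Escherichia coli cells against a fixed T5 target plasmid.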

Going from “GGGCCTGCATGGACCGGTTTTCCCGGTAATCCGTATTTGTG (site GGGCCTGCTCA)” to “GGGCGAACATGGACCGGTTTTCCCGGTAATCCGTATTTGGA (site GGGCGAACTTC)”, the “recombinant UMI read abundance (log10)” value rises from 0.38 to 0.799.

Compared with “GGGCGTCCATGGACCGGTTTTCCCGGTAATCCGTATTTGCA (site GGGCGTCCTTG)”, “GGGCGTCCATGGACCGGTTTTCCCGGTAATCCGTATTTGGT (site GGGCGTCCTAC)” is lower in “recombinant UMI read abundance (log10)” value: 2.59 for the first, 0 for the second.

“GGGCTTGCATGGACCGGTTTTCCCGGTAATCCGTATTTGGA (site GGGCTTGCTTC)” and “GGGGAATCATGGACCGGTTTTCCCGGTAATCCGTATTTGGT (site GGGGAATCTAC)” are within 0.2 log units of each other in “recombinant UMI read abundance (log10)” value: 0.564 for the first, 0.628 for the second.

“GGGGAGGCATGGACCGGTTTTCCCGGTAATCCGTATTTGTG (site GAGGAGGCTCA)” and “GGGGAGGCATGGACCGGTTTTCCCGGTAATCCGTATTTGTG (site GCGGAGGCTCA)” are within 0.2 log units of each other in “recombinant UMI read abundance (log10)” value: 0 for the first, 0.00803 for the second.

Compared with “GGGGAGGCATGGACCGGTTTTCCCGGTAATCCGTATTTGTG (site GGGGAGGCTCA)”, “GGGGAGGCATGGACCGGTTTTCCCGGTAATCCGTATTTGTG (site GTGGAGGCTCA)” is lower in “recombinant UMI read abundance (log10)” value: 0.851 for the first, 0.134 for the second.

Compared with “GGGGAGTCATGGACCGGTTTTCCCGGTAATCCGTATTTGCC (site AGGGAGTCTGG)”, “GGGGAGTCATGGACCGGTTTTCCCGGTAATCCGTATTTGCC (site CGGGAGTCTGG)” is lower in “recombinant UMI read abundance (log10)” value: 1.14 for the first, 0 for the second.

Compared with “GGGGAGTCATGGACCGGTTTTCCCGGTAATCCGTATTTGCC (site GGGGAGTCTGG)”, “GGGGAGTCATGGACCGGTTTTCCCGGTAATCCGTATTTGCC (site TGGGAGTCTGG)” is lower in “recombinant UMI read abundance (log10)” value: 1.78 for the first, 1.02 for the second.

“GGGGCACCATGGACCGGTTTTCCCGGTAATCCGTATTTGCG (site GGGGCACCTAG)” and “GGGGCACCATGGACCGGTTTTCCCGGTAATCCGTATTTGCG (site GGGGCACCTCG)” are within 0.2 log units of each other in “recombinant UMI read abundance (log10)” value: 0.0129 for the first, 0.0566 for the second.

“GGGGCACCATGGACCGGTTTTCCCGGTAATCCGTATTTGCG (site GGGGCACCTGG)” and “GGGGCACCATGGACCGGTTTTCCCGGTAATCCGTATTTGCG (site GGGGCACCTTG)” are the same in “recombinant UMI read abundance (log10)” value: 0 for the first, 0 for the second.

“GGGGCACCATGGACCGGTTTTCCCGGTAATCCGTATTTGCT (site GGGGCACCTAG)” and “GGGGCACCATGGACCGGTTTTCCCGGTAATCCGTATTTGCT (site GGGGCACCTCG)” are within 0.2 log units of each other in “recombinant UMI read abundance (log10)” value: 0 for the first, 0.0126 for the second.

“GGGGCACCATGGACCGGTTTTCCCGGTAATCCGTATTTGCT (site GGGGCACCTGG)” and “GGGGCACCATGGACCGGTTTTCCCGGTAATCCGTATTTGCT (site GGGGCACCTTG)” are the same in “recombinant UMI read abundance (log10)” value: 0 for the first, 0 for the second.

“GGGGCACCATGGACCGGTTTTCCCGGTAATCCGTATTTGGA (site GGGGCACCTTA)” and “GGGGCACCATGGACCGGTTTTCCCGGTAATCCGTATTTGGA (site GGGGCACCTTC)” are within 0.2 log units of each other in “recombinant UMI read abundance (log10)” value: 0 for the first, 0.0209 for the second.

“GGGGCACCATGGACCGGTTTTCCCGGTAATCCGTATTTGGA (site GGGGCACCTTG)” and “GGGGCACCATGGACCGGTTTTCCCGGTAATCCGTATTTGGA (site GGGGCACCTTT)” are within 0.2 log units of each other in “recombinant UMI read abundance (log10)” value: 0 for the first, 0.0158 for the second.

“GGGGCATCATGGACCGGTTTTCCCGGTAATCCGTATTTGCA (site GGGGCAACTTG)” and “GGGGCATCATGGACCGGTTTTCCCGGTAATCCGTATTTGCA (site GGGGCACCTTG)” are the same in “recombinant UMI read abundance (log10)” value: 0 for the first, 0 for the second.

Going from “GGGGCATCATGGACCGGTTTTCCCGGTAATCCGTATTTGCA (site GGGGCAGCTTG)” to “GGGGCATCATGGACCGGTTTTCCCGGTAATCCGTATTTGCA (site GGGGCATCTTG)”, the “recombinant UMI read abundance (log10)” value rises from 0 to 2.13.

First: GGGGTTCCATGGACCGGTTTTCCCGGTAATCCGTATTTGAA (site GGGGTTCCTTT)
Second: GGGTACTCATGGACCGGTTTTCCCGGTAATCCGTATTTGCT (site GGGTACTCTAG)
The “recombinant UMI read abundance (log10)” value of the first is lower: 0 for the first, 3.34 for the second.

“GGGTTCCCATGGACCGGTTTTCCCGGTAATCCGTATTTGTG (site AGGTTCCCTCA)” and “GGGTTCCCATGGACCGGTTTTCCCGGTAATCCGTATTTGTG (site CGGTTCCCTCA)” are within 0.2 log units of each other in “recombinant UMI read abundance (log10)” value: 0.00854 for the first, 0.0144 for the second.

“GGGTTCCCATGGACCGGTTTTCCCGGTAATCCGTATTTGTG (site GGGTTCCCTCA)” and “GGGTTCCCATGGACCGGTTTTCCCGGTAATCCGTATTTGTG (site TGGTTCCCTCA)” are within 0.2 log units of each other in “recombinant UMI read abundance (log10)” value: 0.00899 for the first, 0.0194 for the second.

“GGTAAACCATGGACCGGTTTTCCCGGTAATCCGTATTTGAT (site GGTAAACCTAT)” and “GGTAAGCCATGGACCGGTTTTCCCGGTAATCCGTATTTGGG (site GGTAAGCCTCC)” are within 0.2 log units of each other in “recombinant UMI read abundance (log10)” value: 0 for the first, 0.023 for the second.

“GGTACAACATGGACCGGTTTTCCCGGTAATCCGTATTTGTA (site GGTACAACTTA)” and “GGTACAACATGGACCGGTTTTCCCGGTAATCCGTATTTGTA (site GGTCCAACTTA)” are within 0.2 log units of each other in “recombinant UMI read abundance (log10)” value: 0.0152 for the first, 0.00335 for the second.

“GGTACAACATGGACCGGTTTTCCCGGTAATCCGTATTTGTA (site GGTGCAACTTA)” and “GGTACAACATGGACCGGTTTTCCCGGTAATCCGTATTTGTA (site GGTTCAACTTA)” are within 0.2 log units of each other in “recombinant UMI read abundance (log10)” value: 0.0119 for the first, 0.0127 for the second.

“GGTACGCCATGGACCGGTTTTCCCGGTAATCCGTATTTGTT (site GGTACGACTAA)” and “GGTACGCCATGGACCGGTTTTCCCGGTAATCCGTATTTGTT (site GGTACGCCTAA)” are within 0.2 log units of each other in “recombinant UMI read abundance (log10)” value: 0.0526 for the first, 0.0149 for the second.

First: GGTACGCCATGGACCGGTTTTCCCGGTAATCCGTATTTGTT (site GGTACGGCTAA)
Second: GGTACGCCATGGACCGGTTTTCCCGGTAATCCGTATTTGTT (site GGTACGTCTAA)
The “recombinant UMI read abundance (log10)” value of the first is lower: 0.0123 for the first, 0.426 for the second.

“GGTACGTCATGGACCGGTTTTCCCGGTAATCCGTATTTGAT (site GGTACGTCTAA)” and “GGTACGTCATGGACCGGTTTTCCCGGTAATCCGTATTTGAT (site GGTACGTCTAC)” are within 0.2 log units of each other in “recombinant UMI read abundance (log10)” value: 0.0132 for the first, 0.00659 for the second.

First: GGTACGTCATGGACCGGTTTTCCCGGTAATCCGTATTTGAT (site GGTACGTCTAG)
Second: GGTACGTCATGGACCGGTTTTCCCGGTAATCCGTATTTGAT (site GGTACGTCTAT)
The “recombinant UMI read abundance (log10)” value of the first is lower: 0 for the first, 0.46 for the second.

“GGTACGTCATGGACCGGTTTTCCCGGTAATCCGTATTTGTA (site GGTACGTCTAA)” and “GGTACGTCATGGACCGGTTTTCCCGGTAATCCGTATTTGTA (site GGTACGTCTCA)” are within 0.2 log units of each other in “recombinant UMI read abundance (log10)” value: 0.0713 for the first, 0.00737 for the second.

Going from “GGTACGTCATGGACCGGTTTTCCCGGTAATCCGTATTTGTA (site GGTACGTCTGA)” to “GGTACGTCATGGACCGGTTTTCCCGGTAATCCGTATTTGTA (site GGTACGTCTTA)”, the “recombinant UMI read abundance (log10)” value rises from 0 to 0.651.

Going from “GGTACTGCATGGACCGGTTTTCCCGGTAATCCGTATTTGCC (site GATACTGCTGG)” to “GGTACTGCATGGACCGGTTTTCCCGGTAATCCGTATTTGCC (site GCTACTGCTGG)”, the “recombinant UMI read abundance (log10)” value rises from 0 to 0.662.

First: GGTACTGCATGGACCGGTTTTCCCGGTAATCCGTATTTGCC (site GGTACTGCTGG)
Second: GGTACTGCATGGACCGGTTTTCCCGGTAATCCGTATTTGCC (site GTTACTGCTGG)
The “recombinant UMI read abundance (log10)” value of the first is higher: 1.58 for the first, 0 for the second.

“GGTATGTCATGGACCGGTTTTCCCGGTAATCCGTATTTGTT (site GGTAAGTCTAA)” and “GGTATGTCATGGACCGGTTTTCCCGGTAATCCGTATTTGTT (site GGTACGTCTAA)” are within 0.2 log units of each other in “recombinant UMI read abundance (log10)” value: 0.00575 for the first, 0.0321 for the second.

First: GGTATGTCATGGACCGGTTTTCCCGGTAATCCGTATTTGTT (site GGTAGGTCTAA)
Second: GGTATGTCATGGACCGGTTTTCCCGGTAATCCGTATTTGTT (site GGTATGTCTAA)
The “recombinant UMI read abundance (log10)” value of the first is lower: 0.00327 for the first, 0.586 for the second.

First: GGTATTACATGGACCGGTTTTCCCGGTAATCCGTATTTGAG (site GGTATTACTCT)
Second: GGTCACACATGGACCGGTTTTCCCGGTAATCCGTATTTGTC (site GGTCACACTGA)
The “recombinant UMI read abundance (log10)” value of the first is lower: 0 for the first, 2.3 for the second.

“GGTCACCCATGGACCGGTTTTCCCGGTAATCCGTATTTGTT (site GGACACCCTAA)” and “GGTCACCCATGGACCGGTTTTCCCGGTAATCCGTATTTGTT (site GGCCACCCTAA)” are within 0.2 log units of each other in “recombinant UMI read abundance (log10)” value: 0 for the first, 0.0117 for the second.

“GGTCACCCATGGACCGGTTTTCCCGGTAATCCGTATTTGTT (site GGGCACCCTAA)” and “GGTCACCCATGGACCGGTTTTCCCGGTAATCCGTATTTGTT (site GGTCACCCTAA)” are within 0.2 log units of each other in “recombinant UMI read abundance (log10)” value: 0.0126 for the first, 0.00231 for the second.

“GGTCAGCCATGGACCGGTTTTCCCGGTAATCCGTATTTGGG (site GGTCAGCCTCC)” and “GGTCCAACATGGACCGGTTTTCCCGGTAATCCGTATTTGCA (site GGTCCAACTTA)” are within 0.2 log units of each other in “recombinant UMI read abundance (log10)” value: 0.00726 for the first, 0.0117 for the second.

“GGTCCAACATGGACCGGTTTTCCCGGTAATCCGTATTTGCA (site GGTCCAACTTC)” and “GGTCCAACATGGACCGGTTTTCCCGGTAATCCGTATTTGCA (site GGTCCAACTTG)” are within 0.2 log units of each other in “recombinant UMI read abundance (log10)” value: 0.107 for the first, 0 for the second.

“GGTCCAACATGGACCGGTTTTCCCGGTAATCCGTATTTGCA (site GGTCCAACTTT)” and “GGTCCAACATGGACCGGTTTTCCCGGTAATCCGTATTTGTA (site AGTCCAACTTA)” are within 0.2 log units of each other in “recombinant UMI read abundance (log10)” value: 0.0134 for the first, 0.0127 for the second.

For “GGTCCAACATGGACCGGTTTTCCCGGTAATCCGTATTTGTA (site CGTCCAACTTA)”, the “recombinant UMI read abundance (log10)” value was 0.
